The text below walks through data of ChEMBL document CHEMBL5726052, “Substituted triazoles useful as Axl inhibitors” (2019).

The target in this test is T1, Tyrosine-protein kinase receptor UFO (Homo sapiens, UniProt P30530).
T1 sequence (P30530 whole entry): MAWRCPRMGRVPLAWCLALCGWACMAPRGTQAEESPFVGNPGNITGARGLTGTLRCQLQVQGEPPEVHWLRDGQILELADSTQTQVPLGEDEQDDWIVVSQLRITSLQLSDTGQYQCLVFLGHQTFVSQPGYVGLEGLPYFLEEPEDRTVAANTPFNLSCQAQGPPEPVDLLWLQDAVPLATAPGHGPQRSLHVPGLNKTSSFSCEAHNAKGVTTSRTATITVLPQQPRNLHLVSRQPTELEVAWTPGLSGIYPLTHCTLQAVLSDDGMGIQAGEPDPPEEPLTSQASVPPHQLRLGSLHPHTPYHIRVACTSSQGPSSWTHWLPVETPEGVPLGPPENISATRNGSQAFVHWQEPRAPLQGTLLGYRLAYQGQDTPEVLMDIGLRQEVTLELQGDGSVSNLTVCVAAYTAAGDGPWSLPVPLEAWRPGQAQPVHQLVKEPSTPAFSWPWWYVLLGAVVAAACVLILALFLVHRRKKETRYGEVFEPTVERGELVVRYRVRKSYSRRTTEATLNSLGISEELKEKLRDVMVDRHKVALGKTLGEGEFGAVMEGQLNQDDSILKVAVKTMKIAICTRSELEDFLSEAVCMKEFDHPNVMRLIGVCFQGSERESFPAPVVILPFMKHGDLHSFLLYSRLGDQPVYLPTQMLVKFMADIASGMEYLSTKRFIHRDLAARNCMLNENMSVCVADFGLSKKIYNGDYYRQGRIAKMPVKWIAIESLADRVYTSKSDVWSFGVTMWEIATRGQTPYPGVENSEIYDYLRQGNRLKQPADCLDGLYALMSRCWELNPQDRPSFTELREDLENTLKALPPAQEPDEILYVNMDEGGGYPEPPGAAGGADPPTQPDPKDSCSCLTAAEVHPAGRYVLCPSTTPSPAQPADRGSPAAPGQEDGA
Kind of test: PHOSPHO-AKT IN-CELL WESTERN ASSAY: The resulting chemiluminescence was read with a Luminomitor within 10 minutes to minimize changes in signal intensity. After reading the chemiluminescence, the cells were washed 1× with wash buffer and 1× with PBS by plate washer. The plate was tapped onto paper towels to remove excess liquid from wells and air-dried at ambient temperature for 5 minutes.

Some results are limits rather than exact numbers.

Broadly, the IC50 is the point on the concentration scale where inhibition reaches its midpoint. A higher IC50 goes with weaker potency in that assay. On to `Nc1nc(Nc2ccc(OCCN3CCCCC3)cc2)n(-c2ccccc2)n1`, for which the half-inhibitory concentration (IC50) is greater than 20 µM.
